Literature values as cited in patent publication US6987129B2, “Compounds and methods for the treatment of urogenital disorders” (Cellegy Pharmaceuticals, Inc., priority 2001, dated 2006).

What was measured:
[1] = in vivo
women with FSAD = conditions: human, in vivo

| excretion [1] | metabolism by the liver [1] | Compound | efficacy in a larger clinical trial including other patients suffering from FSAD (women with FSAD) | efficacy in women with spinal cord injury and in women using antidepressants such as serotonin reuptake inhibitors (women with FSAD) |
| --- | --- | --- | --- | --- |
| excreted unchanged by the kidneys | not metabolized by the liver | Cn1c(=O)c2c(ncn2CC(O)CO)n(C)c1=O (stereo not shown) [dyphylline] | – | – |
| – | – | CCCc1nn(C)c2c(=O)[nH]c(-c3cc(S(=O)(=O)N4CCN(C)CC4)ccc3OCC)nc12 [Sildenafil] | failed to show efficacy | demonstrated efficacy |
